Source: publication PMC5791972 (PLoS ONE, 2018)
Like-named read-outs stand apart in the source and are kept apart here.

Legend:
5-HT2C (h) = molecular target: T1, 5-HT2C (h) (Homo sapiens, UniProt P28335); assay type: binding; conditions: 1 h, 1.0E-06 M
T1 construct: host or cells: HEK-293 cells
T1 sequence (P28335 33-458): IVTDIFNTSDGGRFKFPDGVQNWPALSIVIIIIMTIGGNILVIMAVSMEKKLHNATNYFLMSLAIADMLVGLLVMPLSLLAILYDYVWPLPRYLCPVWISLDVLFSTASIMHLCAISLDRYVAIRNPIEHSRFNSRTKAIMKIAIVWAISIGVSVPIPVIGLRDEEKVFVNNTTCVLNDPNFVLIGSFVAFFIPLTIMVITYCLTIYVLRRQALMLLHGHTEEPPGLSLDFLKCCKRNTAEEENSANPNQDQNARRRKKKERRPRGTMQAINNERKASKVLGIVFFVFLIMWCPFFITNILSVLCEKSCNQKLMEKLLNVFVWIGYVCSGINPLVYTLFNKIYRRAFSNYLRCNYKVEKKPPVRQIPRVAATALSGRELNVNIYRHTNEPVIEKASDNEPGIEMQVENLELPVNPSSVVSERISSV

H1 (h) = molecular target: T2, H1 (h) (Homo sapiens, UniProt P35367); assay type: binding; conditions: 1.0E-06 M
T2 construct: host or cells: HEK-293 cells

Cav1.2 = Cav1.2 (Homo sapiens, UniProt Q13936); assay: Ion channel selectivity patch clamp
GABAA1 (h) (α1,β2,γ2) = molecular target: T3, GABAA1 (h) (α1,β2,γ2) (Homo sapiens, UniProt P14867+P47870); assay type: binding; conditions: 1.0E-06 M
T3 construct: host or cells: CHO cells

Nav1.5 = molecular target: T4, Nav1.5 (Homo sapiens, UniProt Q14524); assay: Ion channel selectivity patch clamp; assay type: cell-based
T4 construct: The cDNAs for various full-length ion channels were subcloned into pcDNA5/TO; expressed in transfected cells

5-HT1A (h) = molecular target: T5, 5-HT1A (h) (Homo sapiens, UniProt P08908); assay type: binding; conditions: 1.0E-06 M
T5 construct: host or cells: HEK-293 cells
T5 sequence (P08908 1-422): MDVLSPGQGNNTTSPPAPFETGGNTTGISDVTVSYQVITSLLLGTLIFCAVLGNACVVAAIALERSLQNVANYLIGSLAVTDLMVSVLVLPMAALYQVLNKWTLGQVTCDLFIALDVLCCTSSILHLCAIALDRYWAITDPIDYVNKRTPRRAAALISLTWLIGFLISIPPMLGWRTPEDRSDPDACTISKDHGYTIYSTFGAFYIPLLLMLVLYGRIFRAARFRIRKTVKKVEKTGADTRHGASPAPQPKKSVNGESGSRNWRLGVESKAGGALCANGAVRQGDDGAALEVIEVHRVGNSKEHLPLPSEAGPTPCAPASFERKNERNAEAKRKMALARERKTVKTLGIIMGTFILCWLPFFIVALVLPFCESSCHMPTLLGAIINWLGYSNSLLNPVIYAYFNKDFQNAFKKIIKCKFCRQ

α2B (h) = molecular target: T6, α2B (h) (Homo sapiens, UniProt P18089); assay: biochemical; assay type: binding; conditions: 1.0E-06 M
T6 construct: host or cells: CHO cells
T6 sequence (P18089 1-450): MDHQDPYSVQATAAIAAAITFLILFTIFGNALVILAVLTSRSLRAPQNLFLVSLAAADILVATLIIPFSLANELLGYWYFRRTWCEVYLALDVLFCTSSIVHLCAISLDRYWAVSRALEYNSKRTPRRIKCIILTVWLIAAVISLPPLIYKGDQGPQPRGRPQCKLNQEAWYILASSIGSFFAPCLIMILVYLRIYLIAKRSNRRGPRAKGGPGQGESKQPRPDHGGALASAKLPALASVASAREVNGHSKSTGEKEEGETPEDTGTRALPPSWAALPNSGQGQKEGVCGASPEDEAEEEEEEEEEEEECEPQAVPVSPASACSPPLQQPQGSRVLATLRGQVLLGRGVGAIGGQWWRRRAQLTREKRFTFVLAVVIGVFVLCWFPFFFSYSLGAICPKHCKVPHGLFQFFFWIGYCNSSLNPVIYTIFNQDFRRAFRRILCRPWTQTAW

Nav1.2 = molecular target: T7, Nav1.2 (Homo sapiens, UniProt Q99250); assay: Ion channel selectivity patch clamp; assay type: cell-based
T7 construct: The cDNAs for various full-length ion channels were subcloned into pcDNA5/TO; expressed in transfected cells

acetylcholinesterase (h) = molecular target: T8, acetylcholinesterase (h) (Homo sapiens, UniProt P22303); assay: enzyme assay; assay type: biochemical; conditions: 1.0E-06 M
T8 construct: host or cells: HEK-293 cells

[1] = molecular target: T9, norepinephrine transporter (h) (Homo sapiens, UniProt P23975); assay type: binding
T9 construct: host or cells: CHO cells

D2S (h) = D2S (h) (Homo sapiens, UniProt P14416); assay type: binding; design: host or cells: HEK-293 cells; conditions: 1.0E-06 M
D4.4 (h) = molecular target: T10, D4.4 (h) (Homo sapiens, UniProt P21917); assay: biochemical; assay type: binding; conditions: 1.0E-06 M
T10 sequence (P21917 1-419): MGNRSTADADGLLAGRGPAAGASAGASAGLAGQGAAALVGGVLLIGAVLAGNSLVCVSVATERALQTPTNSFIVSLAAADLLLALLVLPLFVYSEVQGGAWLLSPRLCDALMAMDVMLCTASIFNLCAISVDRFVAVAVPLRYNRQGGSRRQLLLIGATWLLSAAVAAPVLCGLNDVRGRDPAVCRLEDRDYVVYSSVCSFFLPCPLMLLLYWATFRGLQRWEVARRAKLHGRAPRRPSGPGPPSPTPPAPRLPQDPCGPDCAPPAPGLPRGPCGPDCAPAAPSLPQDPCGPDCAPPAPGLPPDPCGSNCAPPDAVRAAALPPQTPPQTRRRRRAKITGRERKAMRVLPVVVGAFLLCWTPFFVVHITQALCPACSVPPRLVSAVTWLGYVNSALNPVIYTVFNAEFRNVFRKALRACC

PDE5 (h) (non-selective) = PDE5 (h) (non-selective) (Homo sapiens, UniProt O76074); assay: biochemical

T3 sequence (P14867 28-456): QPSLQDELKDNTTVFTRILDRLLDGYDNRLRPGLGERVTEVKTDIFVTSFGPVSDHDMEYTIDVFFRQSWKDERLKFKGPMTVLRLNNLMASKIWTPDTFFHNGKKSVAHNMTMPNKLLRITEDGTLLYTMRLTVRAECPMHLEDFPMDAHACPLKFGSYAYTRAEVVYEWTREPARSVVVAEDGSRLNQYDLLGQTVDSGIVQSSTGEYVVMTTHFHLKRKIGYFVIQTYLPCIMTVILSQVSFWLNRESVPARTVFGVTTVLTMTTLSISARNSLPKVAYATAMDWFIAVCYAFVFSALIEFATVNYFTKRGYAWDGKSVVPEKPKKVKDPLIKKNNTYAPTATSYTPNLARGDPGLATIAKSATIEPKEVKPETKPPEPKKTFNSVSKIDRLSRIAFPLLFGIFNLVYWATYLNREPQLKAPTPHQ
T3 sequence (P47870 25-512 limits assumed): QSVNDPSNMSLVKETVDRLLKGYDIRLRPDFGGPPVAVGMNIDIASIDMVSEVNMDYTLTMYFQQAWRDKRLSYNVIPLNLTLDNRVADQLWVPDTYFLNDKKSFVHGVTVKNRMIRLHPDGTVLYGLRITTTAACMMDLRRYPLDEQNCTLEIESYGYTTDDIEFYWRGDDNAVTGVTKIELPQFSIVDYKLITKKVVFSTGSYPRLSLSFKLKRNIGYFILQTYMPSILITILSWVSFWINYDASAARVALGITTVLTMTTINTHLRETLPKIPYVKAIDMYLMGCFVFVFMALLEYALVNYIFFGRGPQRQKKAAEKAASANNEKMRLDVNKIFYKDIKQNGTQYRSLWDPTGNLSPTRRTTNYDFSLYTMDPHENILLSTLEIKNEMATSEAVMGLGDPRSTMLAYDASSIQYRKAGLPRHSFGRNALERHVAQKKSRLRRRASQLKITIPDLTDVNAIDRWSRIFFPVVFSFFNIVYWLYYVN
T3 sequence (P18507 40-475 partner): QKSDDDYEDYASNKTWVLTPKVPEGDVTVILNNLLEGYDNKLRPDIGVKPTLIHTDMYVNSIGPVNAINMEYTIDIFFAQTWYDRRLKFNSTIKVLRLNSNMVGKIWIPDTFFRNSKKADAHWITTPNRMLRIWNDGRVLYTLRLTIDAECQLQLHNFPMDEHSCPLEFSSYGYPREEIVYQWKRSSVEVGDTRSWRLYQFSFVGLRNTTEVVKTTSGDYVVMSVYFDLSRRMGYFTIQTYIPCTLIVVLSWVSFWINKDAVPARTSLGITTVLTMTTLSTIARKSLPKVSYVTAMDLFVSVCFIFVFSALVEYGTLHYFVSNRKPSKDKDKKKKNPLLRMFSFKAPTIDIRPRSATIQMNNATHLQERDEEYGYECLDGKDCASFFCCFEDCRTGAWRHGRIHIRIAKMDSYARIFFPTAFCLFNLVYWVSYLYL
D2S (h), sequence (P14416 1-414 isoform P14416-2): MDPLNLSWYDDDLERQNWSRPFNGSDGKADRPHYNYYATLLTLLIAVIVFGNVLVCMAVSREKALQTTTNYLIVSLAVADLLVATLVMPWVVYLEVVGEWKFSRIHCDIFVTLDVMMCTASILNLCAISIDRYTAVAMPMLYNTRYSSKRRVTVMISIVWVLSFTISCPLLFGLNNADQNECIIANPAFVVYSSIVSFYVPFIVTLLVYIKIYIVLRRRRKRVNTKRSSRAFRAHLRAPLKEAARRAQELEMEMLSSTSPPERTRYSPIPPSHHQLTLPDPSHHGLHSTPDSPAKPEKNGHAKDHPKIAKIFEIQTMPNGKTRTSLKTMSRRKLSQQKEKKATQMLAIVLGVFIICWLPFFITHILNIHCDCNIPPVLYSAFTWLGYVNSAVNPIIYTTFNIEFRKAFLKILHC
T9 sequence (P23975 whole entry): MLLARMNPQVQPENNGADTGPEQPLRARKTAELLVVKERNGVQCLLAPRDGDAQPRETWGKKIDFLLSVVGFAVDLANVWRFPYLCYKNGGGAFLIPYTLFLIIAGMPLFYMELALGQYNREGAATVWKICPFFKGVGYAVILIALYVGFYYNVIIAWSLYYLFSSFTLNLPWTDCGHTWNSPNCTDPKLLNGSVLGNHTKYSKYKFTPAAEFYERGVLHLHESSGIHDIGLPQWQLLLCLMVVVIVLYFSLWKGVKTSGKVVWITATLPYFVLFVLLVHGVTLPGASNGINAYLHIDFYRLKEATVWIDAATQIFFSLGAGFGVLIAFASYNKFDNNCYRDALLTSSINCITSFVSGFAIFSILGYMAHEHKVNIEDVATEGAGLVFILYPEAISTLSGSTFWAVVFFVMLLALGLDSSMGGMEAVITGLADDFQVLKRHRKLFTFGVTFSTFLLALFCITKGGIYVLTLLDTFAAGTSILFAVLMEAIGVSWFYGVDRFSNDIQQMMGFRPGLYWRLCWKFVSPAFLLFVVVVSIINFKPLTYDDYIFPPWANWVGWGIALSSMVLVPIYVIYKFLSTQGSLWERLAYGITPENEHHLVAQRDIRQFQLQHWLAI
T8 sequence (P22303 32-614): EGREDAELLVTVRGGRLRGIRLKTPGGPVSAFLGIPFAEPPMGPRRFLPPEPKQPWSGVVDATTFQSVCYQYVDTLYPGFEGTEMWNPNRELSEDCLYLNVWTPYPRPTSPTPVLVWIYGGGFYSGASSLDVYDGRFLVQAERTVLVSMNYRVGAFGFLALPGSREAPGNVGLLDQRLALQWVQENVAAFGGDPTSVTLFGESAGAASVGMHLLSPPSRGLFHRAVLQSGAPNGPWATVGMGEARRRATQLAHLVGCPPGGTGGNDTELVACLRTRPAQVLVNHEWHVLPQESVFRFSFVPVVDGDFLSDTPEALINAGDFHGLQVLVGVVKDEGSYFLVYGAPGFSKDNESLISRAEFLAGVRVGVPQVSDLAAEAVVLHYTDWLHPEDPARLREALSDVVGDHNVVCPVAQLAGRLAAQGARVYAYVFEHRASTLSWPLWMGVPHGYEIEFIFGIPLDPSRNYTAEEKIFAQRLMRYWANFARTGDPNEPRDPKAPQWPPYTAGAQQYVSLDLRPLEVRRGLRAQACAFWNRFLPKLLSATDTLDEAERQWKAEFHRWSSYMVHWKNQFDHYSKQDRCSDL
T2 sequence (P35367 whole entry): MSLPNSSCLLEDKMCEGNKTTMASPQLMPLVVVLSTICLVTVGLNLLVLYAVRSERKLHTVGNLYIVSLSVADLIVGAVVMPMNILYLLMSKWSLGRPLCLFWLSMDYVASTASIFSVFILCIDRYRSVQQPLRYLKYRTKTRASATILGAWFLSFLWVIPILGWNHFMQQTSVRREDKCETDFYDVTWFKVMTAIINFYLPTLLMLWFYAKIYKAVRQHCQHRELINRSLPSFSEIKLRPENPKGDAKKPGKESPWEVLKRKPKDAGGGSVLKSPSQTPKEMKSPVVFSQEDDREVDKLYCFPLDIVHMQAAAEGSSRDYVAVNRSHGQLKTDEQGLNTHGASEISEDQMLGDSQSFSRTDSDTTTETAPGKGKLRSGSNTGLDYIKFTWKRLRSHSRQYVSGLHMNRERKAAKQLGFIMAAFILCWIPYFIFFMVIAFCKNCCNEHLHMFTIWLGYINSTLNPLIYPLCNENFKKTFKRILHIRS

SMILES | inhibition at 1 µM (5-HT2C (h); read-out: % Inhibition 1st) [%] | inhibition at 1 µM (5-HT2C (h); read-out: % Inhibition 2nd) [%] | inhibition at 1 µM (5-HT2C (h); read-out: % Inhibition Mean) [%] | inhibition at 1 µM (H1 (h); read-out: % Inhibition 1st) [%] | inhibition at 1 µM (H1 (h); read-out: % Inhibition 2nd) [%] | inhibition at 1 µM (H1 (h); read-out: % Inhibition Mean) [%] | IC50 (Cav1.2) [nM] | inhibition at 1 µM (GABAA1 (h) (α1,β2,γ2); read-out: % Inhibition 1st) [%] | inhibition at 1 µM (GABAA1 (h) (α1,β2,γ2); read-out: % Inhibition 2nd) [%] | inhibition at 1 µM (GABAA1 (h) (α1,β2,γ2); read-out: % Inhibition Mean) [%] | IC50 (Nav1.5) [nM] | inhibition at 1 µM (5-HT1A (h); read-out: % Inhibition 1st) [%] | inhibition at 1 µM (5-HT1A (h); read-out: % Inhibition 2nd) [%] | inhibition at 1 µM (5-HT1A (h); read-out: % Inhibition Mean) [%] | inhibition at 1 µM (α2B (h); read-out: % Inhibition 1st) [%] | inhibition at 1 µM (α2B (h); read-out: % Inhibition 2nd) [%] | inhibition at 1 µM (α2B (h); read-out: % Inhibition Mean) [%] | IC50 (Nav1.2) [nM] | inhibition at 1 µM (acetylcholinesterase (h); read-out: % Inhibition 1st) [%] | inhibition at 1 µM (acetylcholinesterase (h); read-out: % Inhibition 2nd) [%] | further results
Cn1c(=O)n(CCCO)c(=O)c2c1nc(Oc1cccc(Cl)c1)n2Cc1ccc(Cl)cc1 [HC-070] | -13.4 | -9.5 | -11.5 | -15.6 | -11.4 | -13.5 | > 1900 | 27.9 | 16.4 | 22.1 | > 1900 | 8.7 | -24.2 | -7.7 | -22.3 | -1.2 | -11.7 | > 1900 | 2.1 | -0.7 | inhibition at 1 µM (acetylcholinesterase (h); read-out: % Inhibition Mean): 0.7%; inhibition at 1 µM ([1]; read-out: % Inhibition 1st): -10.1%; inhibition at 1 µM ([1]; read-out: % Inhibition 2nd): -0.6%; inhibition at 1 µM ([1]; read-out: % Inhibition Mean): -5.4%; inhibition at 1 µM (D2S (h); read-out: % Inhibition 1st): -3%; inhibition at 1 µM (D2S (h); read-out: % Inhibition 2nd): 3.4%; inhibition at 1 µM (D2S (h); read-out: % Inhibition Mean): 0.2%; inhibition at 1 µM (D4.4 (h); read-out: % Inhibition 1st): -15.8%; inhibition at 1 µM (D4.4 (h); read-out: % Inhibition 2nd): -1.8%; inhibition at 1 µM (D4.4 (h); read-out: % Inhibition Mean): -8.8%; inhibition at 1 µM (PDE5 (h) (non-selective); read-out: % Inhibition 1st): 27.3%; inhibition at 1 µM (PDE5 (h) (non-selective); read-out: % Inhibition 2nd): 50.4%; inhibition at 1 µM (PDE5 (h) (non-selective); read-out: % Inhibition Mean): 38.9%
Cn1c(=O)n(CCCO)c(=O)c2c1nc(Oc1cccc(OC(F)(F)F)c1)n2Cc1ccc(Cl)cc1 [HC-608] | -8.5 | -4.7 | -6.6 | -8.1 | -0.9 | -4.5 | > 1640 | 0.6 | 7.9 | 4.2 | > 1640 | -0.2 | 14.8 | 7.3 | -7.4 | -0.7 | -4 | > 1640 | -5.9 | -3.5 | inhibition at 1 µM (acetylcholinesterase (h); read-out: % Inhibition Mean): -4.7%; inhibition at 1 µM ([1]; read-out: % Inhibition 1st): 4.8%; inhibition at 1 µM ([1]; read-out: % Inhibition 2nd): 18.1%; inhibition at 1 µM ([1]; read-out: % Inhibition Mean): 11.5%; inhibition at 1 µM (D2S (h); read-out: % Inhibition 1st): 4.6%; inhibition at 1 µM (D2S (h); read-out: % Inhibition 2nd): 0.2%; inhibition at 1 µM (D2S (h); read-out: % Inhibition Mean): 2.4%; inhibition at 1 µM (D4.4 (h); read-out: % Inhibition 1st): -20.4%; inhibition at 1 µM (D4.4 (h); read-out: % Inhibition 2nd): 3.4%; inhibition at 1 µM (D4.4 (h); read-out: % Inhibition Mean): -8.5%; inhibition at 1 µM (PDE5 (h) (non-selective); read-out: % Inhibition 1st): 54.6%; inhibition at 1 µM (PDE5 (h) (non-selective); read-out: % Inhibition 2nd): 59.4%; inhibition at 1 µM (PDE5 (h) (non-selective); read-out: % Inhibition Mean): 57%
